Assays:
Assay in all cases: MIC shift, liquid microdilution, meropenem fixed at 4 μg/mL
Assay type in all cases: cell-based
[1] = tested on: Escherichia coli ARLG-2829 (NDM-5, OXA-1); conditions: compound + meropenem fixed at 4 μg/mL; E. coli ARLG-2829 (urine clinical isolate), NDM-5, OXA-1
Procedure: (§1) The test compound was tested for minimum inhibitory concentration against three strains of Klebsiella pneumoniae ATCC BAA-1705 (KPC-2), ATCC BAA-2470 (NDM-1), and ARLG-1196 (CTM-1 group, SHV, NDM, TEM), and one strain of Escherichia coli ARLG-2829 (NDM-5, OXA-1). According to the requirements of the Institute of Clinical And Laboratory Standard (CLSI), the minimum inhibitory concentration (MIC) of each drug combination was determined by liquid microdilution method under the premise of fixing the concentration of meropenem at 4 μg/mL.
(§2) Preparation of compound mother plate: On the day of the experiment, the compound to be tested (the final concentration was 0.3125 to 20 μg/mL) and meropenem (the final concentration ranged from 1 to 64 μg/mL) were dissolved in a corresponding solvent (sterile ddH2O or DMSO) to form 100× mother liquors with the highest test concentration, and the compound to be tested and meropenem were then subjected to 2-fold series gradient dilution in a V-bottom 96-well plate to obtain 100× working solutions with the final concentration.
(§3) Preparation of inoculation solution: Fresh bacterial clones were picked from an overnight Mueller Hinton II Agar medium (MHA, Cat. No. 211438, BD BBLTM) plate, suspended in sterilized physiological saline, and adjusted to a concentration of 1×10^8 CFU/mL, and the suspension was further diluted to 5-10^5 CFU/mL with Cation-Adjusted Mueller Hinton II Broth (MHB, Catalog #212332, BD BBLTM).
(§4) Detection of minimum inhibitory concentration (MIC): 1 μL of the compound to be tested and the meropenem working solution were transferred to the corresponding wells to be tested in a round-bottomed 96-well plate (Catalog #3788, Corning), and 98 μL of the inoculation solution was added to the round-bottomed 96-well plate containing drugs, which was an MIC test plate; and after the plate was inverted and cultured at 37° C. for 20-24 h, the MIC value was read, and the minimum inhibitory concentration for inhibiting bacterial growth was defined as MIC.

[2] = tested on: Klebsiella pneumoniae ARLG-1196 (CTM-1 group, SHV, NDM, TEM); conditions: compound + meropenem fixed at 4 μg/mL; K. pneumoniae ARLG-1196, CTM-1 and isoforms thereof, SHV, NDM, TEM
Procedure: as §1, §2, §3, §4

[3] = tested on: Klebsiella pneumoniae ATCC BAA-1705 (KPC-2); conditions: compound + meropenem fixed at 4 μg/mL; K. pneumoniae ATCC BAA-1705, KPC-2
Procedure: as §1, §2, §3, §4

[4] = tested on: Klebsiella pneumoniae ATCC BAA-2470 (NDM-1); conditions: compound + meropenem fixed at 4 μg/mL; K. pneumoniae ATCC BAA-2470, NDM-1
Procedure: as §1, §2, §3, §4

For `O=C(O)c1c(OCC2CC2)ccc2c1O[B-](O)(O)CO2` [Compound 20], the MIC [1] was 2.5 µg/mL, the MIC [2] was 2.5 µg/mL and the MIC [3] was 1.25 µg/mL. The MIC [4] was 2.5 µg/mL.
For `O=C(O)c1c(F)cc(Cl)c2c1OB(O)CO2` [Compound 4], the MIC [1] was 10 µg/mL, the MIC [2] was 2.5 µg/mL and the MIC [3] was at most 0.03 µg/mL. It also gave an MIC [4] of 2.5 µg/mL.
In the case of `O=C(O)c1c(F)ccc2c1OB(O)CO2` [Compound 8], the MIC [1] is reported as 20 µg/mL, the MIC [2] is reported as 10 µg/mL and the MIC [3] is reported as at most 0.3125 µg/mL. It also gave an MIC [4] of 20 µg/mL.
`COc1cc2c(c(C(=O)O)c1F)O[B-](O)(O)CO2` [Compound 16] was tested, and the MIC [1] was 10 µg/mL, the MIC [2] was 5 µg/mL and the MIC [3] was 0.625 µg/mL. The MIC [4] was 5 µg/mL.
For `COB1Oc2c(ccc(F)c2C(=O)O)OC1(C)C` [Compound 2], the MIC [1] was over 20 µg/mL, the MIC [2] was over 20 µg/mL and the MIC [3] was 20 µg/mL. It also gave an MIC [4] of over 20 µg/mL.
`Cc1ccc2c(c1C(=O)O)O[B-](O)(O)CO2` [Compound 17] showed an MIC [1] of 20 µg/mL, an MIC [2] of 10 µg/mL and an MIC [3] of at most 0.3125 µg/mL. It also gave an MIC [4] of 10 µg/mL.
`O=C(O)c1cc(F)cc2c1OB(O)CO2` [Compound 10] gave an MIC [1] of 10 µg/mL, an MIC [2] of 2.5 µg/mL and an MIC [3] of at most 0.03 µg/mL. For the same molecule, the MIC [4] was 5 µg/mL.
`O=C(O)c1c2c(cc3c1O[B-](O)(O)CO3)CCCO2` [Compound 14] was tested, and the MIC [1] was 10 µg/mL, the MIC [2] was 2.5 µg/mL and the MIC [3] was at most 0.3125 µg/mL. For the same molecule, the MIC [4] was 5 µg/mL.
`O=C(O)c1ccc(Cl)c2c1OB(O)CO2` [Compound 7] showed an MIC [1] of over 20 µg/mL, an MIC [2] of 20 µg/mL and an MIC [3] of at most 0.03 µg/mL. It also gave an MIC [4] of 20 µg/mL.
In the case of `O=C(O)c1c(OC2COC2)ccc2c1O[B-](O)(O)CO2` [Compound 23], the MIC [1] is reported as 5 µg/mL, the MIC [2] is reported as 1.25 µg/mL and the MIC [3] is reported as 0.625 µg/mL. It also gave an MIC [4] of 1.25 µg/mL.
Molecule `CC1(C)Oc2ccc(F)c(C(=O)O)c2OB1O` [Compound 1] has an MIC [1] of over 20 µg/mL, an MIC [2] of over 20 µg/mL and an MIC [3] of 0.0625 µg/mL. For the same molecule, the MIC [4] was over 20 µg/mL.
In the case of `COB1COc2ccc(F)c(C(=O)O)c2O1` [Compound 9], the MIC [1] is reported as over 20 µg/mL, the MIC [2] is reported as over 20 µg/mL and the MIC [3] is reported as at most 0.3125 µg/mL. The MIC [4] was over 20 µg/mL.
Molecule `COc1ccc2c(c1C(=O)O)OB(O)CO2` [Compound 3] has an MIC [1] of 5 µg/mL, an MIC [2] of 2.5 µg/mL and an MIC [3] of at most 0.3125 µg/mL. For the same molecule, the MIC [4] was 5 µg/mL.
In the case of `COc1cc(Cl)c2c(c1C(=O)O)OB(O)CO2` [Compound 11], the MIC [1] is reported as 10 µg/mL, the MIC [2] is reported as 2.5 µg/mL and the MIC [3] is reported as at most 0.03 µg/mL. It also gave an MIC [4] of 2.5 µg/mL.
`COc1c(Cl)c(Cl)c2c(c1C(=O)O)OB(O)CO2` [Compound 12] showed an MIC [1] of 10 µg/mL, an MIC [2] of 2.5 µg/mL and an MIC [3] of 0.06 µg/mL. The MIC [4] was 5 µg/mL.
`O=C(O)c1c(F)c(F)cc2c1OB(O)CO2` [Compound 6] showed an MIC [1] of 20 µg/mL, an MIC [2] of 10 µg/mL and an MIC [3] of at most 0.03 µg/mL. For the same molecule, the MIC [4] was 10 µg/mL.
Work on `O=C(O)c1c(Cl)ccc2c1OB(O)CO2` [Compound 5] yielded an MIC [1] of over 20 µg/mL, an MIC [2] of 10 µg/mL and an MIC [3] of at most 0.3125 µg/mL. The MIC [4] was 20 µg/mL.
For `CCCOc1ccc2c(c1C(=O)O)O[B-](O)(O)CO2` [Compound 29], the MIC [1] was 5 µg/mL, the MIC [2] was 1.25 µg/mL and the MIC [3] was 0.625 µg/mL. The MIC [4] was 2.5 µg/mL.
